Source: US10083341B2, “Cellular activity quantification using labeled probes” (Oregon Health & Science University, priority 2014, dated 2018)
Entries after “also recorded” stand apart in the source; their conditions may differ. Where two headings read alike, the source gives them in different places.

Columns and labels:
[1] = tested on: MOLM-14 cells; experiment: Inhibitory concentrations (IC50, IC12.5) of kinase inhibitor panel for MOLM-14 cells; type: cell-based, human; settings: concentration used for 48 h treatment
[2] = tested on: pCRKL, pSTAT5, and pSTAT3; experiment: SC-QDP baseline phosphoheterogeneity of K562 cells after cell cycle synchronization; type: cell-based, human; settings: lovastatin-induced cell cycle synchronization, data not shown
From the text: (§1) SC-QDP phosphoprotein labeling. Cells were fixed, permeabilized and dispersed onto cover glass chambers (Lab-Tek; Nunc), or custom-made, multi-well cover glass chambers for high throughput assays. The cells in each well were blocked and treated with primary anti-phosphoprotein antibodies (pCRKL, pSTAT5, pSTAT3, pERK1/2, pAKT473; Cell Signaling Technology). The anti-CD34 antibody (Dako, USA) was used for selection of CD34+ primitive cells. […]
(§2) SC-QDP image acquisition. Cells were imaged with an inverted fluorescent microscope (Zeiss AxioObserver) equipped with high magnification objectives, QD filter sets (Semrock), and a Luca-R camera (Andor) suitable for detecting discrete QD fluorescence. […]
SC-QDP discrete QD counts in single cells. Levels of phosphoprotein activity were quantified in single cells using automated software imaging algorithms. […] Discrete QD fluorescence was detected, localized and tabulated on a per cell basis using automated algorithms written in MATLAB (Matlab). […] The output of these automated algorithms comprised total counts of detected and localized discrete QD fluorescent puncta in each single cell z-stack. […] The QDs were identified as discrete, non-aggregated units comprised of single or a few QDs, as confirmed by intensity profile measurements of QD fluorescence. […]

[3] = tested on: pAKT; settings: MOLM-14 cells, 48 h
Protocol: (§3) Cell culture and kinase inhibitor treatment. Primary mononuclear cells (MNCs) were isolated from peripheral blood or bone marrow of newly diagnosed, untreated patients with chronic phase CML. MNCs were isolated by centrifugation through a Ficoll gradient, and red blood cells were lysed with 1×ACK (0.15 M NH4Cl, 10 mM KHCO3, 0.1 mM EDTA). MNCs were grown in serum-free media consisting of IMDM supplemented with 20% BIT (Stem Cell Technologies), 40 μg/ml low-density lipoprotein (Sigma-Aldrich), 10^-6 M β-mercaptoethanol, and the following cytokines: 100 ng/ml SCF (Stem Cell Technologies), 100 ng/ml G-CSF, 20 ng/ml FLT3 ligand, 20 ng/ml IL-3, and 20 ng/ml IL-6 (Sigma-Aldrich). MNCs were grown at a density of 5×10^5 cells/ml at 37° C., 5% CO2, overnight in a humidified incubator before drug treatment. The CML (K562) and AML (MOLM-14) cell lines were grown in suspension culture, in RPMI with 10% fetal bovine serum (Invitrogen), 1% L-glutamine (100 mM), and 1% penicillin/streptomycin (100 μg/ml), in a humidified incubator at 37° C., 5% CO2.
(§4) K562 cells and MNCs were treated for 4 h with dasatinib, at a concentration of 100 nM unless otherwise specified.
(§5) SC-QDP phosphoprotein labeling. Cells were fixed, permeabilized and dispersed onto cover glass chambers (Lab-Tek; Nunc), or custom-made, multi-well cover glass chambers for high throughput assays. The cells in each well were blocked and treated with primary anti-phosphoprotein antibodies (pCRKL, pSTAT5, pSTAT3, pERK1/2, pAKT473; Cell Signaling Technology). The anti-CD34 antibody (Dako, USA) was used for selection of CD34+ primitive cells. […] After cells were incubated with secondary antibodies, they were washed in buffer solution and imaged.
(§6) SC-QDP image acquisition. Cells were imaged with an inverted fluorescent microscope (Zeiss AxioObserver) equipped with high magnification objectives, QD filter sets (Semrock), and a Luca-R camera (Andor) suitable for detecting discrete QD fluorescence. Data acquisition consisted of acquiring multiple fields of view randomly for each well of the multi-well chamber. The microscope was controlled by Micromanager (www.micro-manager.org/). […] Image acquisition was performed manually or by automated high-throughput scanning. For automated high-throughput scanning, a custom-written Java plugin for Micromanager was used that allows scanning of user-selected wells as well as random or user-selected areas within each well for DIC, and appropriate multiple quantum dot (QD) channels. The Java plugin also corrected slide tilt by determining the slide focal plane. Image focus at each well was verified and corrected manually if needed.
(§7) SC-QDP discrete QD counts in single cells. Levels of phosphoprotein activity were quantified in single cells using automated software imaging algorithms. Cell segmentation was first done manually and then was optimized for speed using an automated procedure. Automated cell segmentation comprised detecting the nucleus and plasma membrane using a threshold-based intensity algorithm and a membrane expansion cell segmentation algorithm (www.cellprofiler.org) of each cell. Discrete QD fluorescence was detected, localized and tabulated on a per cell basis using automated algorithms written in MATLAB (Matlab). Briefly, detection of discrete QD probes was accomplished in single-cell z-stacks by applying a spatial bandpass filter, detecting localized maxima, and calculating the position of each QD for each z-slice. […] The output of these automated algorithms comprised total counts of detected and localized discrete QD fluorescent puncta in each single cell z-stack.

[4] = tested on: pERK; settings: MOLM-14 cells, 48 h
Protocol: as §3, §4, §5, §6, §7

[5] = tested on: pSTAT5; experiment: SC-QDP pSTAT5 in single CD34+ cells from CML patients; type: cell-based, human; settings: five CML patients, dasatinib 100 nM, 4 h
Protocol: as §3, with “The CML (K562) and AML (MOLM-14) cell lines were grown in suspension culture, in RPMI with 10% fetal bovine serum (Invitrogen), 1% L-glutamine (100 mM), and 1% penicillin/streptomycin (100 μg/ml), in a humidified incubator at 37° C., 5% CO2.” left out
as §2
(§8) SC-QDP discrete QD counts in single cells. Levels of phosphoprotein activity were quantified in single cells using automated software imaging algorithms. […]

[6] = tested on: pCRKL; experiment: SC-QDP discrete QD counting of pCRKL in K562 cells; type: cell-based, human; settings: pCRKL level divided by isotype control, untreated 11.4
Protocol: as §3, with “The CML (K562) and AML (MOLM-14) cell lines were grown in suspension culture, in RPMI with 10% fetal bovine serum (Invitrogen), 1% L-glutamine (100 mM), and 1% penicillin/streptomycin (100 μg/ml), in a humidified incubator at 37° C., 5% CO2.” left out
as §2, §8

[7] = tested on: pCRKL; experiment: SC-QDP pCRKL in single CD34+ cells from CML patients; type: cell-based, human; settings: dasatinib 100 nM, 4 h
Protocol: as §3
K562 cells and MNCs were treated for 4 h with dasatinib, at a concentration of 100 nM unless otherwise specified. […].
as §1, §2, §8

[8] = tested on: pCRKL; experiment: QD total (diffuse) fluorescence quantification of pCRKL in K562 cells; type: cell-based, human; settings: dasatinib-treated, untreated 1.1
Protocol: as §3, with “The CML (K562) and AML (MOLM-14) cell lines were grown in suspension culture, in RPMI with 10% fetal bovine serum (Invitrogen), 1% L-glutamine (100 mM), and 1% penicillin/streptomycin (100 μg/ml), in a humidified incubator at 37° C., 5% CO2.” left out
as §2
Measurements of single-cell total fluorescence of QD and Alexa dyes were obtained for each cell by summing pixel values from all slices in a single z-stack corresponding to each cell and subtracting the global background value for each field of view from the image. […]

Row | Structure (SMILES) | IC12.5 ([1]; Homo sapiens) [µM] | IC50 ([1]; Homo sapiens) [nM] | IC12.5 [1] [µM] | further results
1 | C[C@@H](Oc1cc(-c2cnn(C3CCNCC3)c2)cnc1N)c1c(Cl)ccc(F)c1Cl [crizotinib] | 0.45 | 1800 |  | 
2 | CC[C@H](C)C(=O)O[C@H]1C[C@@H](C)C=C2C=C[C@H](C)[C@H](CC[C@@H]3C[C@@H](O)CC(=O)O3)[C@H]21 [lovastatin] |  |  |  | baseline phosphoheterogeneity [2]: reduced this heterogeneity
3 | CNC(=O)c1cc(Oc2ccc(NC(=O)Nc3ccc(Cl)c(C(F)(F)F)c3)cc2)ccn1 [sorafenib] |  | 8 | 0.002 | 
4 | CCN(CC)CCNC(=O)c1c(C)[nH]c(/C=C2\C(=O)Nc3ccc(F)cc32)c1C [sunitinib] |  | 12 | 0.003 | 
5 | CS(=O)(=O)CCNCc1ccc(-c2ccc3ncnc(Nc4ccc(OCc5cccc(F)c5)c(Cl)c4)c3c2)o1 [lapatinib] | 2.25 | 9000 |  | 
6 | COc1cc2c(Nc3ccc(Br)cc3F)ncnc2cc1OCC1CCN(C)CC1 [vandetanib] | 0.9 | 3600 |  | 
7 | N#CC[C@H](C1CCCC1)n1cc(-c2ncnc3[nH]ccc23)cn1 [ruxolitinib] | 2.5 | 10000 |  | 
8 | Cc1ccc(C(=O)Nc2ccc(CN3CCN(C)CC3)c(C(F)(F)F)c2)cc1C#Cc1cnc2cccnn12 [ponatinib] |  | 4 | 0.001 | 
9 | C#Cc1cccc(Nc2ncnc3cc(OCCOC)c(OCCOC)cc23)c1 [erlotinib] | 1.75 | 7000 |  | overall shift of pAKT PDE curve [3]: left-shift; pAKT phosphoresponse ([3]; at IC12.5): phosphoinhibition; also recorded: inhibition of pAKT; pAKT phosphoresponse ([3]; at IC50): phosphoactivation; also recorded: pAKT activation; overall shift of pERK PDE curve [4]: left-shift; percentage of resistant cells (pERK equal to or greater than mean pERK of untreated cells) ([4]; IC50 concentration (FIG. 5C legend)): 36%; pERK phosphoresponse ([4]; at IC12.5): phosphoinhibition; pERK phosphoresponse ([4]; at IC50): phosphoactivation
10 | Cc1cn(-c2cc(NC(=O)c3ccc(C)c(Nc4nccc(-c5cccnc5)n4)c3)cc(C(F)(F)F)c2)cn1 [nilotinib] | 2.25 | 9000 |  | 
11 | COc1cc2ncnc(Nc3ccc(F)c(Cl)c3)c2cc1OCCCN1CCOCC1 [gefitinib] | 2.25 |  |  | 
12 | Cc1ccc(NC(=O)c2ccc(CN3CCN(C)CC3)cc2)cc1Nc1nccc(-c2cccnc2)n1 [imatinib] | 2.5 |  |  | 
13 | Cc1nc(Nc2ncc(C(=O)Nc3c(C)cccc3Cl)s2)cc(N2CCN(CCO)CC2)n1 [dasatinib] |  | 400 | 0.1 | resistant CD34+ cell population (pSTAT5 greater than mean pSTAT5 of untreated CD34+ cells) [5]: 17-37%; pCRKL activity S/N ratio by QD counting ([6]; dasatinib 10 nM): 4.7; pCRKL activity S/N ratio by QD counting ([6]; dasatinib 100 nM): 2.3; pCRKL inhibition (shift in peak of PDE curve) ([7]; CD34+ cells of five CML patients): ~1.8 fold; frequency of dasatinib-resistant CD34+ cells, alternative threshold (pCRKL greater than mean untreated − 0.5σ untreated) ([7]; five CML patients): 8.5-53.9%; frequency of dasatinib-resistant CD34+ cells (pCRKL equal to or greater than mean of untreated CD34+ cells) ([7]; five CML patients, of total dasatinib-treated cell population): 5.4-9.9%; pCRKL S/N ratio by QD total fluorescence [8]: 1.7
14 | Cc1ccc(Nc2nccc(N(C)c3ccc4c(C)n(C)nc4c3)n2)cc1S(N)(=O)=O [pazopanib] | 0.5 | 2000 |  | 
15 | CO[C@H]1C[C@@H]2CC[C@@H](C)[C@@](O)(O2)C(=O)C(=O)N2CCCC[C@H]2C(=O)O[C@H]([C@H](C)C[C@@H]2CC[C@@H](O)[C@H](OC)C2)CC(=O)[C@H](C)/C=C(\C)[C@@H](O)[C@@H](OC)C(=O)[C@H](C)C[C@H](C)/C=C/C=C/C=C/1C [rapamycin] |  | 20 | 0.005 | 
16 | CNC(=O)c1ccccc1Sc1ccc2c(/C=C/c3ccccn3)n[nH]c2c1 [axitinib] |  |  | 0.025 | 
17 | C=CC(=O)N1CCC[C@@H](n2nc(-c3ccc(Oc4ccccc4)cc3)c3c(N)ncnc32)C1 [ibrutinib] | 0.4 | 1600 |  | 
